Values after ≈ are worked out from the molar mass of the structure shown.
Experiments:
Format in all cases: cell-based
[1] = tested on: Staphylococcus aureus TI-1; experiment: Antibacterial activity (IC), broth microplate as in Example 4 (Example 5, Table 40); conditions: TI1, 18 h
Experimental: (§1) A suitable amount of a sample was dissolved in dimethylsulfoxide (DMSO), and the resultant solution was diluted with the same amount of sterilized distilled water to prepare a bulk sample of 1,000 µg/ml. Mueller-Hinton broth (product of DIFCO) was dispensed into each well of 96-well microplate. Thereafter, the bulk specimen was added to the first well of a row, and successively diluted (10-fold each time) with sterilized distilled water. Separately, a bacterial cell suspension for the test (Staphylococcus aureus 209-P) which had been cultured in the above-mentioned broth overnight at 37°C was inoculated to each well so that the final inoculation amount of 10^6 CFU/ml was attained. The final concentrations of the samples were 100, 10, and 1 µg/ml.
(§2) The antibacterial action was evaluated by the inhibitory concentration (hereinafter abbreviated as IC) at which propagation of the bacteria cultured at 37°C for 18 hours was inhibited. Inhibition was determined by the turbidity of the medium. The expressions "IC≤100", "≤10", and "≤1" indicate that MIC-equivalent values obtained at the succesive […] dilution of the sample are 100-10 µg/ml, 10-1 µg/ml, and not more than 1 µg/ml, respectively. […] (In the subsequent Examples, the same rule applies correspondingly.) Table 39
In a manner similar to that described in Example 4, antibacterial activity of the invention compound was determined. The bacterium used for the test was Staphylococcus aureus TI-1.

[2] = tested on: Staphylococcus aureus 209-P; experiment: Antibacterial activity (IC), Mueller-Hinton broth, 96-well microplate (Example 4, Table 39); conditions: 37°C, 18 hours
Experimental: as §1, §2

[3] = tested on: Streptococcus aureus (TI-1); experiment: Antibacterial activity (IC), agar as in Example 8 (Example 16, Table 49); conditions: 18 h
Experimental: as §2
(§3) A suitable amount of a sample was dissolved in dimethylsulfoxide (DMSO), after which the resulting solution was diluted with the same amount of sterilized distilled water to prepare a bulk sample of 1,000 µg/ml. Separately, a bacterial liquid for the test (methicillin-resistant Staphylococcus aureus (MRSA) isolated from humans) which had been cultured in Mueller-Hinton broth (product of DIFCO) was prepared and inoculated to a Mueller-Hinton agar (product of DIFCO) containing the sample so that the final inoculation amount of 10^6 CFU/ml was achieved. The final concentrations of the samples were 100, 10, and 1 µg/ml.
(§4) After culturing at 37°C for 18 hours, the antibacterial activity was evaluated in terms of IC in a manner similar to that described in Example 4.
In a manner similar to that described in Example 8, antibacterial activity of the invention compound was determined. The bacterium used for the test was […] aureus (TI-1).

[4] = tested on: Staphylococcus aureus (209-P); experiment: Antibacterial activity (IC), agar as in Example 8 (Example 15, Table 48); conditions: 18 h
Experimental: as §2, §3, §4
The bacterium used for the test was Staphylococcus aureus (209-P).

Compound | MIC [1] | MIC [2] | MIC [3] | MIC [4]
CC(Oc1ccc(Oc2nc3ccccc3s2)cc1)C(=O)C(C#N)c1ccc(Cl)cc1Cl (centres unmarked) [Compound No. 11] | 10 to 100 µg/mL (≈ 20.7 to 207 µM) | 10 to 100 µg/mL (≈ 20.7 to 207 µM) |  | 
N#CC(C(=O)COc1ccc(Oc2ccc(C(F)(F)F)cn2)cc1)c1cccc(Cl)c1 (centres unmarked) [Compound No. 13] | 10 to 100 µg/mL (≈ 22.4 to 224 µM) | 10 to 100 µg/mL (≈ 22.4 to 224 µM) |  | 
CC(Oc1ccc(Oc2ccc(C#N)cc2F)cc1)C(=O)C(C#N)c1ccccc1 (centres unmarked) [Compound No. 30] | 10 to 100 µg/mL (≈ 25 to 250 µM) | 10 to 100 µg/mL (≈ 25 to 250 µM) |  | 
CC(Oc1ccc(Oc2ccc(C#N)cc2F)cc1)C(=O)C(C#N)c1ccc(Cl)cc1Cl (centres unmarked) [Compound No. 31] | 10 to 100 µg/mL (≈ 21.3 to 213 µM) | 10 to 100 µg/mL (≈ 21.3 to 213 µM) |  | 
CC(Oc1ccc(Oc2ccc(C(F)(F)F)cc2Cl)cc1)C(=O)C(C#N)C(=O)N(C)c1ccccc1 (centres unmarked) [Compound No. 36, 4-[4-(2-chloro-4-trifluoromethylphenoxy)phenoxy]-2-methylphenylamidecarbonile-3-oxopentanitrile] | 1 to 10 µg/mL (≈ 1.93 to 19.3 µM) |  |  | 
CC(Oc1ccc(Oc2ncc(C(F)(F)F)cc2Cl)cc1)C(=O)C(C#N)C(=O)N(Cc1ccccc1)Cc1ccccc1 (centres unmarked) [Compound No. 38, 4-[4-(3-chloro-5-trifluoromethylpyridyloxy)phenoxy]-2-dibenzylamidecarbonile-3-oxopentanitrile] |  | 1 to 10 µg/mL (≈ 1.64 to 16.4 µM) |  | 
CC(Oc1cccc(Oc2ccc(C(F)(F)F)cn2)c1)C(=O)C(C#N)c1ccc(Cl)c(Cl)c1 (centres unmarked) [Compound No. 102, 2-(3,4-dichlorophenyl)-3-oxo-4-[3-(5-trifluoromethyl-2-pyridyloxy)phenoxy]pentanonitrile] |  |  | ≤ 1 µg/mL | 1 to 10 µg/mL (≈ 2.02 to 20.2 µM)
COc1ccc(C(C#N)C(=O)C(C)Oc2cccc(Oc3ccc(C(F)(F)F)cc3Cl)c2)cc1 (centres unmarked) [Compound No. 107, 4-[3-(2-chloro-4-trifluoromethylphenoxy)-phenoxy]-2-(4-methoxyphenyl)-3-oxopentanonitrile] |  |  | 10 to 100 µg/mL (≈ 20.4 to 204 µM) | 10 to 100 µg/mL (≈ 20.4 to 204 µM)
CC(Oc1ccc(Oc2nc(Cl)c(Cl)cc2Cl)cc1)C(=O)C(C#N)c1ccc(Cl)cc1Cl (centres unmarked) [compound 7] | 1 to 10 µg/mL (≈ 1.88 to 18.8 µM) | 10 to 100 µg/mL (≈ 18.8 to 188 µM) |  | 
CC(Oc1ccc(Oc2ccc(C(F)(F)F)cn2)cc1)C(=O)C(C#N)c1cccc(C(F)(F)F)c1 (centres unmarked) [compound 8] | 1 to 10 µg/mL (≈ 2.02 to 20.2 µM) | 10 to 100 µg/mL (≈ 20.2 to 202 µM) |  | 
N#CC(C(=O)COc1ccc(Oc2ncc(C(F)(F)F)cc2Cl)cc1)c1cccc(Cl)c1 (centres unmarked) [compound 12] | 1 to 10 µg/mL (≈ 2.08 to 20.8 µM) | 10 to 100 µg/mL (≈ 20.8 to 208 µM) |  | 
CC(Oc1ccc(Oc2ncc(C(F)(F)F)cc2Cl)cc1)C(=O)C(C#N)c1ccccc1 (centres unmarked) [compound 18] | 1 to 10 µg/mL (≈ 2.17 to 21.7 µM) | 10 to 100 µg/mL (≈ 21.7 to 217 µM) |  | 
CC(Oc1ccc(Oc2ncc(C(F)(F)F)cc2Cl)cc1)C(=O)C(C#N)c1cccs1 (centres unmarked) [compound 19] | 10 to 100 µg/mL (≈ 21.4 to 214 µM) | 10 to 100 µg/mL (≈ 21.4 to 214 µM) |  | 
CC(Oc1ccc(Oc2ncc(C(F)(F)F)cc2Cl)cc1)C(=O)C(C#N)c1nc(Cl)cc(Cl)n1 (centres unmarked) [compound 21] | 1 to 10 µg/mL (≈ 1.88 to 18.8 µM) | 10 to 100 µg/mL (≈ 18.8 to 188 µM) |  | 
CC(Oc1ccc(Oc2ncc(C(F)(F)F)cc2Cl)cc1)C(=O)C(C#N)c1c(Cl)cccc1Cl (centres unmarked) [compound 23] |  | 10 to 100 µg/mL (≈ 18.9 to 189 µM) |  | 
CC(Oc1ccc(Oc2ncc(C(F)(F)F)cc2Cl)cc1)C(=O)C(C#N)c1c(F)cccc1Cl (centres unmarked) [compound 24] | 10 to 100 µg/mL (≈ 19.5 to 195 µM) | 10 to 100 µg/mL (≈ 19.5 to 195 µM) |  | 

Source: patent EP0768085A1, “ANTIBACTERIAL AGENT” (DAIICHI PHARMACEUTICAL CO., LTD., priority 1994, dated 1996)
